The values below come from PMC11457795 (Cell chemical biology, 2024).

This assay addresses PfMAGL (Plasmodium falciparum, UniProt Q8IJ22). Description: fluorogenic 4-methylumbelliferyl caprylate hydrolysis assay, […] min preincubation. Type of assay: biochemical.

The term IC50 denotes the midpoint of a concentration-inhibition curve. A low value points to higher potency.

For the compound `C#CCCCCP(=O)(OCC)Oc1ccc(S(=O)(=O)F)cc1` (racemic) [compound 2, ethyl (4-(fluorosulfonyl)phenyl) hex-5-yn-1-ylphosphonate], the IC50 came to 20 nM.
